Laboratory results from article PMC8770641, “A transcytotic transport mechanism across the tympanic membrane” (Scientific Reports, 2022).

Assays:
[1] = tested on: trans-TM transport of phage expressing peptide TMT-3; assay: Inhibitor studies: effect on trans-TM transport of phage expressing peptide TMT-3; type: in vivo, Sprague Dawley rats; conditions: 1 h, n = 6 ears; for Effect on trans-TM phage transport: NTHi-infected rats; for Reduction of trans-TM transport: ME contents titered
Procedure: Figure 5 illustrates the results of inhibitor studies.
The MEs of rats were infected with NTHi as above. 48 h later, the external ears of six anesthetized rats were injected with 50 µl of saline containing 10^10 phage expressing TM-3 peptide and up to four inhibitors. Inhibitors were applied at 5–10 times the published IC50 (see Table 1). For any combination of that affected trans-TM transport, Inhibitors were then tested individually to identify the active agent(s). Inhibitors included bafilomycin A (2 µM), brefeldin A (1 uM), carrageenan (200 mg/ml), chlorpromazine (300 µM), Dynasore (500 µM), Endosidin-2 (1 mM), Exo-1 (200 µM), Filipin (50 µg/ml), genistein (100 µM), N-ethylmaleimide (50 µM), nocodazole (300 µM), PitStop-2 (100 µM), Retro-2 (100 µM) and wortmannin (100 µM). […] Six external ears were injected with 10^9 wild-type (WT) phage without a peptide, as negative controls for phage contamination. After one hour, the external ears were extensive rinsed to remove all phage, the MEs were opened and the contents titered to quantify bacteriophage entry. Six replicates were averaged to get the mean and The standard error was calculated by dividing the standard deviation by the sample size's square root (n = 6).

tympanic membrane (TM) = conditions: purified phage applied to the TM of previously infected rats for one hour; ME contents titered; mean of n = 6; cited from earlier work
From the text: Table 1 Sequences and ME recovery of trans-TM 12-mer peptide phage identified by two screening methods (data from Kurabi et al.[19]). Each purified phage was applied to the TM of previously infected rats for one hour (n = 6), and the ME contents then tittered and the number of phage particles recovered were averaged (mean of n = 6). Phage recovery was grouped into transport categories, which were | column: Mean recovery from ME (PFUs)

[2] = inhibitor 100 µM with TMT-3 phage
[3] = inhibitor 100 µM with 10^10 TMT-3 phage in 50 µl saline in external ear of NTHi-infected rats (48 h)
[4] = inhibitor 300 µM with TMT-3 phage

For `CO/C1=C\C(C)=C\[C@@H](C)[C@@H](O)[C@@H](C)C/C(C)=C/C=C/[C@H](OC)[C@@H]([C@@H](C)[C@@H](O)[C@H](C)[C@@]2(O)C[C@@H](O)[C@H](C)[C@@H](C(C)C)O2)OC1=O` [Bafilomycin], the “Effect on trans-TM phage transport” value ([1]; inhibitor 2 µM with TMT-3 phage) was “no effect”.

For `O=C(N/N=C/c1ccc(O)c(O)c1)c1cc2ccccc2cc1O` [Dynasore], the “Effect on trans-TM phage transport” value ([1]; inhibitor 500 µM with TMT-3 phage) was “no effect”.

In the case of `COc1cc(/C=N/NC(=O)c2cccc(F)c2)cc(I)c1O` [Endosidin-2], the “Reduction of trans-TM transport” value ([1]; inhibitor 1 mM with 10^10 TMT-3 phage in 50 µl saline in external ear of NTHi-infected rats (48 h)) was ~ 80% and the “Effect on trans-TM phage transport” value ([1]; inhibitor 1 mM with TMT-3 phage) was “significantly reduced transport”.

In the case of `COC(=O)c1ccccc1NC(=O)c1ccc(F)cc1` [Exo-1], the “Reduction of trans-TM transport” value ([1]; inhibitor 200 µM with 10^10 TMT-3 phage in 50 µl saline in external ear of NTHi-infected rats (48 h)) was 40% and the “Effect on trans-TM phage transport” value ([1]; inhibitor 200 µM with TMT-3 phage) was “significantly reduced transport”.

In the case of `CCCCC[C@@H](O)[C@H]1C(=O)O[C@H](C)[C@@H](O)/C=C/C=C/C=C/C=C/C=C(\C)[C@@H](O)C[C@H](O)C[C@H](O)C[C@H](O)C[C@H](O)C[C@H](O)C[C@@H]1O` [Filipin], the “Effect on trans-TM phage transport” value ([1]; inhibitor 50 µg/ml with TMT-3 phage) was “no effect”.

With `CCN1C(=O)C=CC1=O` [N-ethymaleimide] the “Effect on trans-TM phage transport” value ([1]; inhibitor 50 µM with TMT-3 phage) was “no effect”.

In the case of `O=C1NC(=NS(=O)(=O)c2cccc3ccccc23)S/C1=C\c1ccc(Br)cc1` [Pitstop-2], the “Effect on trans-TM phage transport” value [1, 2] was “Neither Pitstop-2, as illustrated in Fig. 5, nor chlorpromazine had any effect”.

For `Cc1ccc(C=Nc2ccccc2C(=O)Nc2ccccc2)s1` [Retro-2], the “Reduction of trans-TM transport” value [1, 3] was “approximately 90%” and the “Effect on trans-TM phage transport” value [1, 2] was “significantly reduced transport”.

In the case of `CN(C)CCCN1c2ccccc2Sc2ccc(Cl)cc21` [chlorpromazine], the “Effect on trans-TM phage transport” value [1, 4] was “Neither Pitstop-2, as illustrated in Fig. 5, nor chlorpromazine had any effect”.

In the case of `O=c1c(-c2ccc(O)cc2)coc2cc(O)cc(O)c12` [genistein], the “Effect on trans-TM phage transport” value [1, 2] was “no effect”.

In the case of `COC(=O)Nc1nc2ccc(C(=O)c3cccs3)cc2[nH]1` [nocodazole], the “Effect on trans-TM phage transport” value [1, 4] was “no effect”.

With `COC[C@H]1OC(=O)c2coc3c2[C@@]1(C)C1=C(C3=O)[C@@H]2CCC(=O)[C@@]2(C)C[C@H]1OC(C)=O` [wortmannin] the “Reduction of trans-TM transport” value [1, 3] was “approximately 90%” and the “Effect on trans-TM phage transport” value [1, 2] was “significantly reduced transport”.

In the case of “ALWPPNLHAWVP [BPT-2, trans-TM 12-mer peptide expressed on M13 bacteriophage, fused through the C-terminus to the pIII protein]”, the “Mean recovery from ME (PFUs)” value (tympanic membrane (TM)) is listed as 210 PFUs.

In the case of “DVGAGRWFSDNG [TMT-4, trans-TM 12-mer peptide expressed on M13 bacteriophage, fused through the C-terminus to the pIII protein]”, the “Mean recovery from ME (PFUs)” value (tympanic membrane (TM)) is given as 5430 PFUs.

In the case of “SADSTKTTHLTL [TMT-3, trans-TM 12-mer peptide expressed on M13 bacteriophage, fused through the C-terminus to the pIII protein]”, the “Mean recovery from ME (PFUs)” value (tympanic membrane (TM)) is given as 12,030 PFUs.

In the case of “SDDSRPIAQFAI [TMT-5, trans-TM 12-mer peptide expressed on M13 bacteriophage, fused through the C-terminus to the pIII protein]”, the “Mean recovery from ME (PFUs)” value (tympanic membrane (TM)) is listed as 3017 PFUs.

For “SPPGKFLESLRS [TMT-1, trans-TM 12-mer peptide expressed on M13 bacteriophage, fused through the C-terminus to the pIII protein]”, the “Mean recovery from ME (PFUs)” value (tympanic membrane (TM)) is given as 610 PFUs.

For “TFNPPPPQMPST [BPT-4, trans-TM 12-mer peptide expressed on M13 bacteriophage, fused through the C-terminus to the pIII protein]”, the “Mean recovery from ME (PFUs)” value (tympanic membrane (TM)) is given as 9040 PFUs.

In the case of “THPSTKVPGTPA [BPT-3, trans-TM 12-mer peptide expressed on M13 bacteriophage, fused through the C-terminus to the pIII protein]”, the “Mean recovery from ME (PFUs)” value (tympanic membrane (TM)) is given as 13,050 PFUs.

For “TLSPKMPGGGYW [TMT-2, trans-TM 12-mer peptide expressed on M13 bacteriophage, fused through the C-terminus to the pIII protein]”, the “Mean recovery from ME (PFUs)” value (tympanic membrane (TM)) is listed as 3210 PFUs.

In the case of “TPMVERNYNAAD [BPT-1, trans-TM 12-mer peptide expressed on M13 bacteriophage, fused through the C-terminus to the pIII protein]”, the “Mean recovery from ME (PFUs)” value (tympanic membrane (TM)) is listed as 95 PFUs.

For carrageenan, the “Effect on trans-TM phage transport” value ([1]; inhibitor 200 mg/ml with TMT-3 phage) was “no effect”.
